Test results reported in patent US20240041977A1, “ANNEXIN A1 N-TERMINAL PEPTIDE FORMULATIONS AND METHODS” (ResoTher Pharma A/S, priority 2020, published 2024).
Ends that are not written are not given here.

How the values were obtained:
Assay type in all cases: physicochemical
[1] = Dissolution time
Procedure: The peptide was initially wetted with a small amount of solvent and left for 5 minutes and following added the full amount of solvent. The solution was swirled by hand and observation of final dissolution time noted.
1.6 or 3.2 mg AnxA1 was added to Milli Q® water at around neutral pH containing different salts (NaCl, CaCl2, ZnCl2 or HCl) according to table 2. Dissolution times was observed and the resulting solutions was analyzed using the ThT assay.

[2] = Visual appearance of solution
Procedure: The remainder of the peptide suspension was diluted to an assumed concentration of 5 mg/mL and 4*1 mL samples were adjusted to pH 2, 4, 6 and 8, (see FIG. 2). All 4 vials continued to be opaque indicating limited solubility.
Approximately 16 mg/mL AnxA1 was added to milliQ® water. The resulting pH was 7.5. pH was adjusted to pH 10 in one sample using 0.1 M NaOH and to pH 2 using 0.1 M HCl in another sample, according to table 3. The appearance of the solution was noted. At pH≥7.4 the solution was clear. At pH≤7.1>2.6 solutions where unclear. At pH≤2.6 the solution was again clear. Data are summarized the Table 3, see also FIG. 5.
(§1) AnxA1 samples are dissolved in Milli Q® water or 5% mannitol in Milli Q® water to approximately 18 mg/mL and pH was adjusted using 1.0 M HCl and NaOH. After dissolution visual appearance was noted and a photograph was taken, see FIG. 6 and Table 4, and a sample was cleared by centrifugation and the concentration determined in the supernatant using UV-VIS spectroscopy.
Isotonic samples containing 1.5-1.6 mg/mL AnxA1 and a tonicity provider (isotonicity modifier) was prepared around neutral pH according to the specification in table 5. […] The samples were subjected to the ThT assay previously described, where a higher lag-time was observed when using sucrose and mannitol as tonicity providers compared to using trehalose and glucose. The data presented in Table 5 is illustrated graphically in FIG. 7.

[3] = Visual appearance of solution; remark: listed apart in the source
[4] = Solubility: concentration of AnxA1 in solution/supernatant by UV-VIS
Procedure: The concentration of AnxA1 was determined using UV-VIS spectroscopy using a Nanodrop 2000c from Thermo scientific and an extinction coefficient of A280^0.1%=1.64 ml mg^−1cm^−1.
Three samples of AnxA1 was prepared at pH 9 in Milli Q® water, 0.9% NaCl (154 mM) at concentrations 3.3, 1.6 and 0.8 mg/mL, respectively. pH was adjusted by addition of 0.1 M NaOH to each of the samples and the concentration determined after centrifugation using UV-VIS spectroscopy.
as §1

Substance: AMVSEFLKQAWFIENEEQEYVQTLKSSKGGPGSAVSPYPTFNPSSDV-NH2 [AnxA1]
- dissolution ([1]; 20 mg freeze-dried AnxA1 per mL 0.9% NaCl (154 mM) in Milli Q at neutral pH): not readily dissolved
- Dissolution time (Notes) ([1]; AnxA1 1.5 mg/mL, NaCl 0.9%, ZnCl2 0.77 mM, pH N/A, after more than 2 hours): not fully solubilized
- Dissolution time (Notes) ([1]; AnxA1 1.6 mg/mL in Milli Q water, no salt, pH 7.5): 5 min
- Dissolution time (Notes) ([1]; AnxA1 1.6 mg/mL in Milli Q water, no salt, pH 7.6): 5 min
- Dissolution time (Notes) ([1]; AnxA1 1.6 mg/mL, CaCl2 0.77 mM, pH 7.2): 5 min
- Dissolution time (Notes) ([1]; AnxA1 1.6 mg/mL, CaCl2 0.77 mM, pH 7.4): 10 min
- Dissolution time (Notes) ([1]; AnxA1 1.6 mg/mL, NaCl 0.9%, CaCl2 0.77 mM, pH 7.1): 35 min
- Dissolution time (Notes) ([1]; AnxA1 3.2 mg/mL, NaCl 0.9%, pH 7.2): 45 min
- dissolution time ([1]; Milli Q water around neutral pH, no addition of salt): less than 5 minutes
- Visual appearance ([2]; AnxA1 1.5 mg/mL, glucose 5 wt.%, pH 7.1): Clear
- Visual appearance ([2]; AnxA1 1.6 mg/mL, mannitol 5 wt.%, pH 6.7): Clear
- Visual appearance ([2]; AnxA1 1.6 mg/mL, sucrose 10 wt.%, pH 7.2): Clear
- Visual appearance ([2]; AnxA1 1.6 mg/mL, trehalose 10 wt.%, pH 7.2): Clear
- Visual appearance ([2]; all isotonic samples, 1.5-1.6 mg/mL AnxA1 and a tonicity provider, around neutral pH): clear solutions
- Description (visual appearance) ([2]; approximately 16 mg/mL AnxA1 in milliQ water, pH 2.6-2.0): Clear solution
- Description (visual appearance) ([2]; approximately 16 mg/mL AnxA1 in milliQ water, pH 3.8-3.1): Starts clearing up
- Description (visual appearance) ([2]; approximately 16 mg/mL AnxA1 in milliQ water, pH 6.1-4.2): Gel-like
- Description (visual appearance) ([2]; approximately 16 mg/mL AnxA1 in milliQ water, pH 6.8-6.3): Milky, turbid
- Description (visual appearance) ([2]; approximately 16 mg/mL AnxA1 in milliQ water, pH 7.1): Fluffy particles
- Description (visual appearance) ([2]; approximately 16 mg/mL AnxA1 in milliQ water, pH ≥7.4): clear solution
- appearance of the solution ([2]; approximately 16 mg/mL AnxA1 in milliQ water, pH≤7.1>2.6): unclear
- Visual appearance ([2]; approximately 18 mg/mL AnxA1, pH 2, 4 and 6, with and without 5% mannitol in Milli Q water): unclear and or viscous solution
- Visual appearance ([2]; approximately 18 mg/mL AnxA1, pH 8 and 10, with and without 5% mannitol in Milli Q water): clear solution
- appearance ([2]; assumed 5 mg/mL AnxA1 in Milli Q water, 0.9% NaCl (154 mM), adjusted to pH 2, 4, 6 and 8): opaque
- appearance ([3]; 20 mg AnxA1 per mL 0.9% NaCl, neutral pH, after over night at room temperature on rotation): opaque gel like substance
- appearance ([3]; AnxA1 3.3, 1.6 and 0.8 mg/mL in Milli Q water, 0.9% NaCl (154 mM), at pH 6.0): opaque
- appearance ([3]; AnxA1 3.3, 1.6 and 0.8 mg/mL in Milli Q water, 0.9% NaCl (154 mM), immediately below pH 6.0): precipitated
- solubility thermodynamic ([4]; 0.9% NaCl (154 mM) in Milli Q water, saline or isotonic, 20 mg freeze-dried AnxA1 per mL 0.9% NaCl (154 mM) in Milli Q, neutral pH, over night at room temperature on rotation, spun down): ~170 µg/mL
- solubility (concentration A280 as a function of pH) ([4]; AnxA1 3.3, 1.6 and 0.8 mg/mL in MiliQ water, 0.9% NaCl (154 mM), below pH 6.0): very low
- solubility ([4]; saline at neutral pH around 7.3): poorly soluble
